The values below come from article PMC3622158 (Photochemistry and photobiology, 2013).

For data set [1], the system named is red blood cells (RBCs). Put plainly: Fluorescence and bright field microscopy of RBCs and ghosts. Format: cell-based. The note with it: Figure 2A; for association with RBCs prior to irradiation (fluorescence distribution): RBCs incubated with compound, fluorescence microscopy; for morphology of RBCs incubated with compound before irradiation: bright field microscopy.

For data set [2] the following is noted: in aqueous solution; standards of the RNO assay; cited from earlier work.
In data set [3] the test system is red blood cells (RBCs). Kind of data set: Photohemolysis assay of fluorescently labeled CPPs. The note with it: singlet oxygen quencher/inhibitor added to TMR-TAT and RBCs; Figure 1B. In kind it is cell-based.
The subject of data set [4] is red blood cells (RBCs).

As to `CC1=C(CCC(=O)O)c2cc3[nH]c(cc4nc(cc5[nH]c(cc1n2)c(C)c5C(C)O)C(C)=C4C(C)O)c(C)c3CCC(=O)O` (stereo not shown) [HP, hematoporphyrin], in the data set on red blood cells (RBCs) [1], the “association with RBCs prior to irradiation (fluorescence distribution)” value was “strong fluorescence signals were present on the surface of the cells” and the “morphology of RBCs incubated with compound before irradiation” value is recorded as “formed echinocytes”.

Turning to `O=C1OC2(c3cc(I)c(O)c(I)c3Oc3c2cc(I)c(O)c3I)c2c(Cl)c(Cl)c(Cl)c(Cl)c21` [RB, Rose Bengal], in the data set on red blood cells (RBCs) [1], the “association with RBCs prior to irradiation (fluorescence distribution)” value is on record as “strong fluorescence signals were present on the surface of the cells” and the “morphology of RBCs incubated with compound before irradiation” value is “formed echinocytes”. The “singlet oxygen quantum yield” value in data set [2] was 0.76.

Consider `CC(/C=C/C=C(\C)C(=O)O)=C\C=C\C=C(C)\C=C\C=C(/C)C(=O)O` [crocetin], for which, in the data set with red blood cells (RBCs) [3], the “effect on TMR-TAT mediated photohemolysis” value is “significant decrease in photohemolytic activity”.

For `O=C1OC2(c3ccccc31)c1cc(Br)c(O)c(Br)c1Oc1c2cc(Br)c(O)c1Br` [eosin Y], in data set [2], the “singlet oxygen quantum yield” value is on record as 0.57.

In the case of `CC(=O)Oc1c(C)c(C)c2c(c1C)CCC(C)(CCC[C@H](C)CCC[C@H](C)CCCC(C)C)O2` (stereo partly drawn) [tocopherol, α-tocopheryl acetate], the “effect on TMR-TAT mediated photohemolysis” value with red blood cells (RBCs) [3] was “significant decrease in photohemolytic activity”.

In the case of GRRRRRRRRR-NH2 [R9], in the data set on red blood cells (RBCs) [4] (RB and R9 co-incubated during irradiation, same conditions, data not shown), the “lysis with RB and peptide co-incubated” value is on record as 93±3%. Moreover, the “lytic effect of peptides alone” value with red blood cells (RBCs) [4] (in the dark or when cells were irradiated without RB present) is given as “not lytic by themselves”.
